Legend:
[1] = test system: xylene-induced swelling of the mouse right ear (二甲苯所致的小鼠右耳肿胀); assay: 二甲苯致小鼠耳肿胀抗炎试验 (xylene-induced mouse ear swelling test); type: in vivo; conditions: oral gavage; for inhibition of xylene-induced right ear swelling (in words) / swelling degree compared with aspirin (in words): used alone, 10mg/kg; for swelling degree compared with aspirin (in words): versus aspirin 150mg/kg
[2] = test system: Hep-2 cells (Hep-2细胞); type: cell-based; conditions: 3 days, MTT

| SMILES | inhibition of xylene-induced right ear swelling (in words) ([1]; 5 days) | swelling degree compared with aspirin (in words) ([1]; 5 days) | CC50 compared with the three-component combination (in words) [2] | swelling degree ([1]; aspirin 150mg/kg, once daily for 5 days, xylene 50μL on right ear 1h after last dose, ears weighed 1h later) [mg] | anti-inflammatory effect compared between aspirin and test substances (in words) ([1]; aspirin 150mg/kg, test substances 10mg/kg, 5 days) |
| --- | --- | --- | --- | --- | --- |
| C[C@]12CC[C@H](O)C[C@H]1CC[C@@H]1[C@@H]2CC[C@]2(C)[C@@H](c3ccc(=O)oc3)CC[C@]12O [蟾毒灵] | 能够抑制二甲苯所致的小鼠右耳肿胀 | 肿胀度大于阳性对照药阿司匹林 | 远远小于蟾毒灵、酯蟾毒配基以及远华蟾蜍精三者的组合 | – | – |
| C[C@]12CC[C@H](O)C[C@@]1(O)CC[C@@H]1[C@@H]2CC[C@]2(C)[C@@H](c3ccc(=O)oc3)CC[C@]12O [远华蟾蜍精] | 能够抑制二甲苯所致的小鼠右耳肿胀 | 肿胀度大于阳性对照药阿司匹林 | 远远小于蟾毒灵、酯蟾毒配基以及远华蟾蜍精三者的组合 | – | – |
| C[C@]12CC[C@H](O)C[C@H]1CC[C@@H]1[C@@H]2CC[C@]2(C)[C@@H](c3ccc(=O)oc3)C[C@H]3O[C@]132 [酯蟾毒配基] | 能够抑制二甲苯所致的小鼠右耳肿胀 | 肿胀度大于阳性对照药阿司匹林 | 远远小于蟾毒灵、酯蟾毒配基以及远华蟾蜍精三者的组合 | – | – |
| CC(=O)Oc1ccccc1C(=O)O [阿司匹林, reference compound] | – | – | – | 8.56 | 优于蟾毒灵、酯蟾毒配基或远华蟾蜍精 |

Reference: patent publication CN107308170A, “药物联用在制备抗炎药物中的应用以及抗炎药物组合物” (priority 2017, dated 2017)
